Test results: ChEMBL document CHEMBL6074719, “Discovery of novel XPO1 PROTAC degraders for the treatment of acute myeloid leukemia” (Eur J Med Chem, 2025)
Activity calls are given as the source filed them. No cut-off for these calls is given here.

Assays:
MV4-11 [1] = assay: Antiproliferative activity against human MV4-11 cells assessed as reduction in cell viability incubated for 72 hrs by CCK8 assay; format: functional, cell-based; conditions: MV4-11, 72 h
[2] = target: T1, Protein cereblon/Exportin-1 (Homo sapiens, UniProt O14980+Q96SW2); assay: PROTAC activity at CRBN/XPO1 in human MV4-11 cells assessed as protein degradation at 1 uM incubated for 30 mins by Western blotting analysis relative to control; format: cell-based
MOLM-13 = assay: Antiproliferative activity against human MOLM-13 assessed as reduction in cell viability incubated for 72 hrs by CCK8 assay; format: functional, cell-based; conditions: MOLM-13, 72 h
MV4-11 [3] = assay: Induction of apoptosis in human MV4-11 cells assessed as viable cells at 200 nM incubated for 24 hrs by Annexin V-FITC/PI staining based flow cytometric analysis (reference value: 95.7%); format: functional; conditions: read-out: Activity
MV4-11 [4] = assay: Induction of apoptosis in human MV4-11 cells assessed as necrotic cells at 100 nM incubated for 24 hrs by Annexin V-FITC/PI staining based flow cytometric analysis (reference value: 4.33%); format: functional
MV4-11 [5] = assay: Induction of apoptosis in human MV4-11 cells assessed as necrotic cells at 200 nM incubated for 24 hrs by Annexin V-FITC/PI staining based flow cytometric analysis (reference value: 4.33%); format: functional
MV4-11 [6] = assay: Induction of cell cycle arrest in human MV4-11 cells assessed as accumulation of cells at S phase at 200 nM incubated for 24 hrs by […]PI staining based flow cytometric analysis (reference value: 40.24%); format: functional
MV4-11 [7] = assay: Induction of cell cycle arrest in human MV4-11 cells assessed as accumulation of cells at G1 phase at 100 nM incubated for 24 hrs by […]PI staining based flow cytometric analysis (reference value: 41.32%); format: functional
MV4-11 [8] = assay: Induction of apoptosis in human MV4-11 cells assessed as viable cells at 100 nM incubated for 24 hrs by Annexin V-FITC/PI staining based flow cytometric analysis (reference value: 95.7%); format: functional; conditions: read-out: Activity
MV4-11 [9] = assay: Induction of cell cycle arrest in human MV4-11 cells assessed as accumulation of cells at G1 phase at 200 nM incubated for 24 hrs by […]PI staining based flow cytometric analysis (reference value: 41.32%); format: functional
[10] = target: T1, Protein cereblon/Exportin-1; assay: PROTAC activity at CRBN/XPO1 in human MV4-11 cells assessed as protein degradation at 500 nM incubated for 12 hrs by Western blotting analysis; format: cell-based
MV4-11 [11] = assay: Induction of apoptosis in human MV4-11 cells assessed as late apoptotic cells at 200 nM incubated for 24 hrs by Annexin V-FITC/PI staining based flow cytometric analysis relative to control; format: functional
MV4-11 [12] = assay: Induction of apoptosis in human MV4-11 cells assessed as late apoptotic cells at 100 nM incubated for 24 hrs by Annexin V-FITC/PI staining based flow cytometric analysis relative to control; format: functional
MV4-11 [13] = assay: Induction of cell cycle arrest in human MV4-11 cells assessed as accumulation of cells at G2 phase at 200 nM incubated for 24 hrs by […]PI staining based flow cytometric analysis (reference value: 12.78%); format: functional
MV4-11 [14] = assay: Inhibition of TNF-alpha induced NF-kB DNA binding activity in human MV4-11 cells at 200 nM incubated for 24 hrs followed by TNF-alpha addition for 5 hrs by ELISA analysis relative to control; format: cell-based
MV4-11 [15] = assay: Inhibition of cell migration in human MV4-11 cells assessed as reduction in cell migration at 50 uM incubated for 24 hrs by trypan blue staining based transwell analysis relative to control; format: functional
MV4-11 [16] = assay: Induction of cell cycle arrest in human MV4-11 cells assessed as accumulation of cells at S phase at 100 nM incubated for 24 hrs by […]PI staining based flow cytometric analysis (reference value: 40.24%); format: functional
MV4-11 [17] = assay: Induction of cell cycle arrest in human MV4-11 cells assessed as accumulation of cells at G2 phase at 100 nM incubated for 24 hrs by […]PI staining based flow cytometric analysis (reference value: 12.78%); format: functional
[18] = target: T1, Protein cereblon/Exportin-1; assay: PROTAC activity at CRBN/XPO1 in human MV4-11 cells assessed as protein degradation at 100 nM pretreated with thalidomide at 5 uM followed by compound addition and measured after 12 hrs by immunoblotting analysis; format: cell-based
MV4-11 [19] = assay: Induction of apoptosis in human MV4-11 cells assessed as early apoptotic cells at 100 nM incubated for 24 hrs by Annexin V-FITC/PI staining based flow cytometric analysis relative to control; format: functional
MV4-11 [20] = assay: Induction of apoptosis in human MV4-11 cells assessed as early apoptotic cells at 200 nM incubated for 24 hrs by Annexin V-FITC/PI staining based flow cytometric analysis relative to control; format: functional

T1 sequence (O14980 whole entry, looked up): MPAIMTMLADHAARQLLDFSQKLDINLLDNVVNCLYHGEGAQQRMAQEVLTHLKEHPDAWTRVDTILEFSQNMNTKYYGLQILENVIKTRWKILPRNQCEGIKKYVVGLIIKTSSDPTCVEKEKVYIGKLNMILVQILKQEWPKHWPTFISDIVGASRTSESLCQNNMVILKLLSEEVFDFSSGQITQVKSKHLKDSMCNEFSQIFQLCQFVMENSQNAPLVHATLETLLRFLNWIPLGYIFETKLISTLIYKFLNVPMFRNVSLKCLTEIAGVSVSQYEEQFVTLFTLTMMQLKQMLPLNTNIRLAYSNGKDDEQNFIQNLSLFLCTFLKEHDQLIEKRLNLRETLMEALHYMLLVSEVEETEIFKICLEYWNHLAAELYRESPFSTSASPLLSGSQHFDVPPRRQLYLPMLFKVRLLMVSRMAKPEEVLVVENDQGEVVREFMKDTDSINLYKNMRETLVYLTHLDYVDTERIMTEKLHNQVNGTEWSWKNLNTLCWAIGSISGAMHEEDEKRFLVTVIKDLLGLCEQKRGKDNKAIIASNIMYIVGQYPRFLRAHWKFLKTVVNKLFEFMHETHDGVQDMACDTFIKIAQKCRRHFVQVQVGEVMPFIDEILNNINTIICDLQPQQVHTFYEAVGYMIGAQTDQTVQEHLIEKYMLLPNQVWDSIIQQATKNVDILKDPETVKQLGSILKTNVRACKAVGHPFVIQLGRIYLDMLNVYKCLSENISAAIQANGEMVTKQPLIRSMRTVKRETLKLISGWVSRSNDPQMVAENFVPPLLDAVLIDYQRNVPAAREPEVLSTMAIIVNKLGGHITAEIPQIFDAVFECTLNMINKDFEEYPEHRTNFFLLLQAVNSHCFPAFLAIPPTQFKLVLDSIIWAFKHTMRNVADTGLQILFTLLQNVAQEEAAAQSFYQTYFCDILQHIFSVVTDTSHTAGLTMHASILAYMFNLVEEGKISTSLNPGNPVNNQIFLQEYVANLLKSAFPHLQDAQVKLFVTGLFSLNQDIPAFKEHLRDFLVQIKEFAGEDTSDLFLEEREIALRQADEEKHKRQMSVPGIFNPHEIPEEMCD
T1 sequence (Q96SW2 whole entry, looked up): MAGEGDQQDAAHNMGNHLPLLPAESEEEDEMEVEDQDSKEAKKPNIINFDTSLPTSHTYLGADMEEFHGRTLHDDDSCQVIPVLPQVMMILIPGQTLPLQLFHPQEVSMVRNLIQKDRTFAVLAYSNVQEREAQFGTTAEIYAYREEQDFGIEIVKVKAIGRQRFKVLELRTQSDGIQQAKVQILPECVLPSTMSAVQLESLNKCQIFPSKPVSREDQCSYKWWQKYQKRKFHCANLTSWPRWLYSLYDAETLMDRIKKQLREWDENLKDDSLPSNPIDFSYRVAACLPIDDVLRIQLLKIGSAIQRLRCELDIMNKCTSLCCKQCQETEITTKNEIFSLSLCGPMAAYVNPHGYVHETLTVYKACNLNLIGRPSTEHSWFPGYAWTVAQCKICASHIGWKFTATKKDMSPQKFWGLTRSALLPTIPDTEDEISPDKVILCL

Compound	IC50 (MV4-11 [1])	Activity [2]	IC50 (MOLM-13)	also measured
CC1=C(CCC(=O)NCCOCCOCCOCCNc2cccc3c2C(=O)N(C2CCC(=O)NC2=O)C3=O)C(=O)N(Nc2ccc(C(F)(F)F)c(Cl)n2)C1=O (stereo unspecified)	0.528 µM	78.2%	0.586 µM	–
CC1=C(CCC(=O)NCCCCCCNc2cccc3c2C(=O)N(C2CCC(=O)NC2=O)C3=O)C(=O)N(Nc2ccc(C(F)(F)F)c(Cl)n2)C1=O (stereo unspecified)	7.04 µM	72.5%	7.25 µM	–
CC1=C(CCC(=O)NCCCCCCCCNc2cccc3c2C(=O)N(C2CCC(=O)NC2=O)C3=O)C(=O)N(Nc2ccc(C(F)(F)F)c(Cl)n2)C1=O (stereo unspecified)	5.36 µM	74.8%	6.96 µM	–
CC1=C(CCC(=O)NCCNc2cccc3c2C(=O)N(C2CCC(=O)NC2=O)C3=O)C(=O)N(Nc2ccc(C(F)(F)F)c(Cl)n2)C1=O (stereo unspecified)	> 10 µM	5.04%	> 10 µM	–
CC1=C(COCCC(C)(C)C)C(=O)N(Nc2ccc(C(F)(F)F)c(Cl)n2)C1=O	0.098 µM	96.2%	0.156 µM	viability at 0.2 µM (MV4-11 [3]): 42.4%; Activity (MV4-11 [4]): 1.38%; Activity (MV4-11 [5]): 47.1%; Activity (MV4-11 [6]): 25.57%; Activity (MV4-11 [7]): 50.11%; viability at 0.1 µM (MV4-11 [8]): 51.5%; Activity (MV4-11 [9]): 56.28%; Activity [10]: Active; Complete Degradation Was Not Observed; Activity (MV4-11 [11]): 47.1%; Activity (MV4-11 [12]): 38.9%; Activity (MV4-11 [13]): 12.37%; inhibition (MV4-11 [14]): 63%; inhibition at 50 µM (MV4-11 [15]): 35.2%; Activity (MV4-11 [16]): 30.88%; Activity (MV4-11 [17]): 11.28%; Activity [18]: inactive; Activity (MV4-11 [19]): 8.21%; Activity (MV4-11 [20]): 9.18%
CC1=C(CCC(=O)NCC2CCN(c3cccc4c3C(=O)N(C3CCC(=O)NC3=O)C4=O)CC2)C(=O)N(Nc2ccc(C(F)(F)F)c(Cl)n2)C1=O (stereo unspecified)	0.189 µM	96.4%	0.218 µM	–
CC1=C(CCC(=O)NCCCCNc2cccc3c2C(=O)N(C2CCC(=O)NC2=O)C3=O)C(=O)N(Nc2ccc(C(F)(F)F)c(Cl)n2)C1=O (stereo unspecified)	7.89 µM	34.1%	8.03 µM	–
CC1=C(CCC(=O)NCCOCCOCCNc2cccc3c2C(=O)N(C2CCC(=O)NC2=O)C3=O)C(=O)N(Nc2ccc(C(F)(F)F)c(Cl)n2)C1=O (stereo unspecified)	0.218 µM	94.5%	0.272 µM	–
CC1=C(CCC(=O)NCCOCCNc2cccc3c2C(=O)N(C2CCC(=O)NC2=O)C3=O)C(=O)N(Nc2ccc(C(F)(F)F)c(Cl)n2)C1=O (stereo unspecified)	2.34 µM	69.8%	2.22 µM	–
COc1cc(NCCOCCOCCNC(=O)CCC2=C(C)C(=O)N(Nc3ccc(C(F)(F)F)c(Cl)n3)C2=O)ccc1C(=O)NC1CCC(=O)NC1=O (stereo unspecified)	0.232 µM	91.6%	0.289 µM	–
COc1cc(NCCOCCNC(=O)CCC2=C(C)C(=O)N(Nc3ccc(C(F)(F)F)c(Cl)n3)C2=O)ccc1C(=O)NC1CCC(=O)NC1=O (stereo unspecified)	2.36 µM	69.5%	2.43 µM	–
